Experiments:
human fibroblast cells = experiment: toxicity assay on cultured human fibroblast cells; type: cell-based; conditions: sub-confluent (proliferating) fibroblasts, 72 hours, 25 μM
Procedure: To assess the potential of parabulin as a bona fide anti-parasitic agent, its effects were evaluated on cultures of human cells and growth of the apicomplexan parasite Toxoplasma gondii within human cells. […] CA4 has well-defined anti-mitotic activity due to its disruption of vertebrate MTs.
FIG. 4(A) depicts a toxicity assay showing the effect of parabulin and CA4 on cultured human fibroblast cells.

T. thermophila = experiment: turbidity based T. thermophila cell growth inhibition assay; parameters: species or system Tetrahymena thermophila; conditions: parabulin 50 μM (FIG. 2D)
Text: Zoom outs showing differences in the Taxane-, Pironetin—and Colchicine-sites between T. thermophila (light grey) and H. sapiens (wheat) tubulin. The three distinct zones of the Colchicine site are highlighted by colored transparent ovals. Amino acid residue differences between human and protozoa tubulin are indicated. […] FIG. 2(C) represents the chemical structures of CA4 and parabulin. The two CA4 rings, denoted A and B, are highlighted as well as the linker (yellow). FIG. 2(D) is a plot showing the time course of T. thermophila cell growth in the presence of CA4 (20 μM) or parabulin (50 μM; error bars corresponding to the standard deviation of triplicate measurements).
To assess the activity of any putative anti parasitic compound, a turbidity based T. thermophila cell growth inhibition assay was put in place in parallel to the efforts to solve T. thermophila MT and tubulin structures.
(§1) To test if parabulin is able to bind to tubulin, its activity was assessed in vitro on dynamic MTs using our TIRF microscopy reconstitution assay. In contrast to the dynamic periods of growth and shrinkage observed for T. thermophila MTs (FIG. 1C), the addition of parabulin led to a striking reduction in the numbers of growth events (FIG. 3A).

[1] = biological target: T1, T. thermophila MTs (Tt-MT) (Tetrahymena thermophila, UniProt P41351+P41352); experiment: TIRF microscopy MT dynamics reconstitution assay; type: biochemical
T1 construct: it was decided to isolate tubulin dimers from a protozoa organism; from tissue; host or cells: Tetrahymena thermophila cells (native tubulin isolated from the ciliate)
Text: FIG. 1(D) is a plot of Tt-MT plus-end growth rates as a function of tubulin concentration. Error bars represent the mean +/−95% CI. […] Left: outside view. The α- and β-tubulin monomers are shown in ribbon representation and colored in dark and light gray, respectively. […] Right: tubulin dimer models fitted into a sliced, transparent and zoomed-in view. The paclitaxel structure in stick representation is highlighted in magenta. Lateral contacts between protofilaments are indicated in blue (H2-S3 in α2 and β2), red (H1-S2 in α2 and β2) and green (M loop in α1 and β1).
as §1
FIG. 3(A) is a plot showing the quantification of the Tt-MT growth events in TIRF microscopy MT dynamics reconstitution assays in the presence of the indicated drugs. Error bars represent the mean +/−95% CI. […] Error bars represent the mean +/−95% CI. […] FIG. 3(C) represents the Tt-MT length in the presence of the indicated drugs (40 μM). Error bars represent the mean +/−95% CI.
The average number of growth events per 10-minute movie decreased from 41.3 to 3.8 even though the number of MT seeds immobilized on the cover slide was similar.

Toxoplasma gondii [2] = experiment: T. gondii tachyzoite replication; type: cell-based; conditions: 36 h after addition; controls above 96% eight cell-stage
Procedure: (§2) In order to assess the efficacy of parabulin, T. gondii tachyzoite replication was followed 36 h after addition of parabulin. […] A T. gondii plaque assay was used to determine the concentration at which parasite replication is reduced by half (EC50 value). When confluent fibroblast monolayers were infected with wild-type tachyzoites and left to grow for seven days, lytic parasite growth created visible holes in the vertebrate fibroblast monolayer. Both the plaque numbers and sizes were reduced by parabulin treatment.

Toxoplasma gondii [3] = experiment: T. gondii plaque assay; type: cell-based; conditions: seven days
Procedure: as §2

[4] = drugs 40 μM, one-way ANOVA vs DMSO

T1 sequence (P41352 whole entry): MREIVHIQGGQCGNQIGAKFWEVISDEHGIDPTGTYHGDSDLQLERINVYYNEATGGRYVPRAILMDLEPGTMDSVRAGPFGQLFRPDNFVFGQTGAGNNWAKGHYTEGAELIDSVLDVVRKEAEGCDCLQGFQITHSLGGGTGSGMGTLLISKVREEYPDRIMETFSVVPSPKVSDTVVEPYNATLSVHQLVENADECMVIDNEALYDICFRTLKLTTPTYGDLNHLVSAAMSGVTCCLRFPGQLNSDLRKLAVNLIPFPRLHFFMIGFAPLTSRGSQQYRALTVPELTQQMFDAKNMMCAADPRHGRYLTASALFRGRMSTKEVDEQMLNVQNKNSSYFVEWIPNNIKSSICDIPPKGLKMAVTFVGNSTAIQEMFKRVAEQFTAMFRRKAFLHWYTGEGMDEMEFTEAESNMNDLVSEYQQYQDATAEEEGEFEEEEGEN
T1 sequence (P41351 whole entry): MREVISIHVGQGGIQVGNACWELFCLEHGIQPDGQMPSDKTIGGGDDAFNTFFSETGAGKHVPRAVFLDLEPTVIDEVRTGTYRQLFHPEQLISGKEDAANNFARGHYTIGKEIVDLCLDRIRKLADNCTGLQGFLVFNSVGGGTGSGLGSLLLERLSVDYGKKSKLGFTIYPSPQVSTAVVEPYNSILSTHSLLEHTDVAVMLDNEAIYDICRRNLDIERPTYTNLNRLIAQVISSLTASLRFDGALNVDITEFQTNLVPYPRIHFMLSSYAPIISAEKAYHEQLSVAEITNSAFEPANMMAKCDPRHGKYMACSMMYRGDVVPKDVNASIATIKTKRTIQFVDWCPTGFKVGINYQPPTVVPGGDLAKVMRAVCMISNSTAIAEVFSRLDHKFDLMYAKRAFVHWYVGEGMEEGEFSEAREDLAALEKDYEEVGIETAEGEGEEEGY

Q: `COc1ccc(/C=C\c2cc(OC)c(OC)c(OC)c2)cc1O` [CA4, Combretastatin A4, reference compound] was tested. Which cell survival (human fibroblast cells) did it give?
A: 46%

Q: With `COc1ccc(C=CC(=O)NCc2cc(OC)c(OC)c(OC)c2)cc1OC` [parabulin, 3-(3,4-dimethoxyphenyl)-N-[(3,4,5-trimethoxyphenyl)methyl]prop-2-enamide] as the molecule, how does the “T. thermophila cell growth” value (T. thermophila) read?
A: inhibited T. thermophila cell growth

Q: And the “average number of growth events per 10-minute movie” value ([1]; Tt-MT, control (DMSO) 41.3, similar number of MT seeds)?
A: 3.8

Q: What about the “Tt-MT growth length vs control” value [1, 4] of the same molecule?
A: no significant differences

Q: And the “Tt-MT growth rate vs control” value [1, 4]?
A: no significant differences

Q: What about the cell survival (human fibroblast cells) of the same molecule?
A: 99%

Q: What about the “eight cell-stage parasites (replication)” value (Toxoplasma gondii [2]) of the same molecule?
A: no eight cell-stage observed

Q: What about the EC50 (Toxoplasma gondii [3]; Toxoplasma gondii, 168 h, confluent fibroblast monolayers, wild-type tachyzoites, read-out: EC50 (plaque area relative to control)) of the same molecule?
A: 6.5 µM

Q: What about the “plaque numbers and sizes” value (Toxoplasma gondii [3]) of the same molecule?
A: reduced
